# Test results: patent US9187413B2, “Peripherally restricted FAAH inhibitors” (The Regents of the University of California, priority 2010, dated 2015)
# Read-outs that look alike come from different tables or passages of the source.
# Columns and labels:
# FAAH = FAAH (Mus musculus (Mouse), UniProt O08914); test: FAAH inhibition ex vivo after systemic administration in mice; settings: mouse, ip
# Experimental: Drug preparation for in vivo experiments Drugs were dissolved in polyethylene glycol 400/Tween-80/saline (1/1/18; by volume) and administered by i.p. (5-10 mL-kg^−1) or s.c. injection (10 mL-kg^−1).
# [1] = test system: formalin-induced nociception; test: Formalin-induced pain behavior; type: in vivo; settings: rats, 1 mg-kg^-1, i.p.
# Experimental: (§1) Behavioral tests. We measured nocifensive responses elicited by i.p. injection of acetic acid in male Swiss and C57B1/6 (wild-type or FAAH-deficient) mice^40, intraplantar injection of carrageenan in male Swiss mice^20, intraplantar injection of formalin in male Sprague-Dawley rats^41, and sciatic nerve ligation in male Swiss mice^39.
# Behavioral tests Acetic acid-induced writhing was measured in Swiss mice or C57B1/6 mice (wild-type and FAAH-deficient), as described^40 with minor modifications. Briefly, the mice were acclimated to the experimental room for 2 h. Each animal was injected with acetic acid (150 μL, 0.6% in saline) and placed into a glass cylinder. Abdominal stretches (extension of body and hind limbs) were counted for 20 min, starting 5 min after acetic acid injection. […] Behavior was scored by an observer blinded to the treatment conditions. Formalin-induced nociception was assessed in Sprague-Dawley rats, as described^41. […] Immediately after formalin injection, the rats were returned to the observation container and nocifensive behavior was recorded for 60 min with a video camera. Recordings were analyzed by observers blinded to treatment conditions. Nocifensive behavior was measured continuously for 60 min^41. […] Each 5-min bin was analyzed for time spent (1) lifting and (2) licking or biting the injected paw. […]
# [2] = test system: acetic acid-induced writhing; test: Acetic acid-induced writhing; type: in vivo, mice
# Experimental: as §1
# Behavioral tests Acetic acid-induced writhing was measured in Swiss mice or C57B1/6 mice (wild-type and FAAH-deficient), as described^40 with minor modifications. Briefly, the mice were acclimated to the experimental room for 2 h. Each animal was injected with acetic acid (150 μL, 0.6% in saline) and placed into a glass cylinder. Abdominal stretches (extension of body and hind limbs) were counted for 20 min, starting 5 min after acetic acid injection. […] Behavior was scored by an observer blinded to the treatment conditions. Formalin-induced nociception was assessed in Sprague-Dawley rats, as described^41. The rats were singly housed and kept in a shared holding room under a 12:12 h light:dark cycle. […] Immediately after formalin injection, the rats were returned to the observation container and nocifensive behavior was recorded for 60 min with a video camera. Recordings were analyzed by observers blinded to treatment conditions. Nocifensive behavior was measured continuously for 60 min^41. […] Each 5-min bin was analyzed for time spent (1) lifting and (2) licking or biting the injected paw. Nocifensive behavior was analyzed using the composite pain score weighted scores technique (CPS-WST1,2) calculated for the entire time of observation (0-60 min) and, separately, for the first (0-10 min) and second phase (10-60 min) of the behavioral response^46. The area under the curve (AUC) corresponding to CPS-WST1,2 was calculated using the trapezoidal rule. […] Paw volumes were measured using a plethysmometer (Ugo Basile, Milan, Italy). […] Mechanical hyperalgesia was assessed by measuring the latency(s) to withdraw the paw from a constant mechanical pressure exerted onto its dorsal surface. […]
# Fos protein = test: Formalin-induced Fos expression in lumbar spinal cord; type: in vivo; settings: rats, URB937 1 mg-kg^-1, i.p., lumbar spinal cord
# Experimental: Fos expression. We measured Fos protein levels by quantitative immunocytochemistry^5 on slices of lumbar (L4/L5) spinal cord from male Sprague-Dawley rats.
# Fos immunohistochemistry Two hours after formalin injection into the dorsal paw, rats received a lethal dose of Nembutal (50 mg-mL^−1). They were perfused through the heart with 100 mL of 1% heparinized phosphate buffered saline (PBS) followed by 300 mL of ice-cold 4% paraformaldehyde. The lumbar-sacral region of the spinal cord was collected from each rat. Spinal cords were post fixed in 4% paraformaldehyde at 4° C. for 24 h and then cryoprotected in 30% sucrose at 4° C. for 24-48 hours. Spinal cords were cryostat-cut into 40 μm transverse sections at the level of the lumbar enlargement (L4/L5). Free floating alternating sections were kept in a series of wells filled with PBS. Every fourth section was processed for Fos immunoreactivity to ensure that the same cell would not be counted twice. Endogenous peroxidases were inactivated by incubation in hydrogen peroxide. […]
# Selection of sections and quantification of the number of Fos-positive cells was performed by an observer blinded to experimental conditions. […] Using Image J, Fos expressing cells were counted in each subdivision, regardless of staining intensity, by an observer blinded to experimental treatments.
# Chain of FAAH (O08914 whole entry): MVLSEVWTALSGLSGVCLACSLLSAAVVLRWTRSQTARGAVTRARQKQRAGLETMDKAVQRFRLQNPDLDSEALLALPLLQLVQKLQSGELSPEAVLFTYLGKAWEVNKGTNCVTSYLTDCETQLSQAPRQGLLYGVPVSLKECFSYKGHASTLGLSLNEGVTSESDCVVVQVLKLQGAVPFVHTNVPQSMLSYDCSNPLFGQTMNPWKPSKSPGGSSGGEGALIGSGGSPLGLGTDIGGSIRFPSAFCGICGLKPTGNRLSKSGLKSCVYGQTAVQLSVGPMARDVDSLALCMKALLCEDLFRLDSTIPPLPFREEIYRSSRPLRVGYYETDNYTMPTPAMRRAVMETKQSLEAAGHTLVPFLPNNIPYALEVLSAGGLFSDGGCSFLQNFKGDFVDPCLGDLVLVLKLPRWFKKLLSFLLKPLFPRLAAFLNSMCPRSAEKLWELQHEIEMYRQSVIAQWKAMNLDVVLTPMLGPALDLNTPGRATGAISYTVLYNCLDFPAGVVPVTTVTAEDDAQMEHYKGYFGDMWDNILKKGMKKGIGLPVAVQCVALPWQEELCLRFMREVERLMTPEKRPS
structure (smiles),measurement,setting,value
"NC(=O)c1cccc(-c2cc(OC(=O)NC3CCCCC3)ccc2O)c1 [Compound 1b, cyclohexylcarbamic acid 3′-carbamoyl-6-hydroxybiphenyl-3-yl ester]",inhibition at 1 mg/kg,"FAAH; Mice, 1 mg/Kg i.p., Colon, read-out: % of FAAH inhibition, Colon",84.7 ± 0.3%
same,inhibition at 1 mg/kg,"FAAH; Mice, 1 mg/Kg i.p., Duodenum, read-out: % of FAAH inhibition, Duodenum",84.3 ± 1.4%
same,inhibition at 1 mg/kg,"FAAH; Mice, 1 mg/Kg i.p., Hypothalamus, read-out: % of FAAH inhibition, Hypothalamus",18.4 ± 13.8%
same,inhibition at 1 mg/kg,"FAAH; Mice, 1 mg/Kg i.p., Illeum, read-out: % of FAAH inhibition, Illeum",86.8 ± 2.4%
same,inhibition at 1 mg/kg,"FAAH; Mice, 1 mg/Kg i.p., Jejunum, read-out: % of FAAH inhibition, Jejunum",90 ± 1.4%
same,inhibition at 1 mg/kg,"FAAH; Mice, 1 mg/Kg i.p., Kidney, read-out: % of FAAH inhibition, Kidney",88.3 ± 1%
same,inhibition at 1 mg/kg,"FAAH; Mice, 1 mg/Kg i.p., Liver, read-out: % of FAAH inhibition, Liver",91.7 ± 0.7%
same,inhibition at 1 mg/kg,"FAAH; Mice, 1 mg/Kg i.p., Spinal cord, read-out: % of FAAH inhibition, Spinal cord",17.7 ± 10.6%
same,inhibition at 1 mg/kg,"FAAH; Mice, 1 mg/Kg i.p., Spleen, read-out: % of FAAH inhibition, Spleen",72.5 ± 0.7%
same,inhibition at 1 mg/kg,"FAAH; ex vivo 1 h after a single injection in mice (1 mg-kg^-1, i.p.), brain, read-out: FAAH Inhibition in brain (%)",-3 ± 8%
same,area under the curve of formalin-induced pain behavior,[1],decreased the area under the curve
same,nocifensive behavior when administered alone,"[2]; mice, 1 mg-kg^-1, without acetic acid",no detectable nocifensive behavior
same,acetic acid-induced writhing ED50,"[2]; mice, subcutaneous administration, 1 h before acetic acid",0.1 mg/kg
same,reduction of acetic acid-induced writhing in FAAH-deficient mice,"[2]; mutant FAAH-deficient mice, 1 mg-kg^-1",absent
same,formalin-induced Fos expression,Fos protein,lowered the Fos response to formalin
